One test concerns Karpas422 cells. Description: Tumor cell growth inhibition assay. The format is cell-based. The settings on record: Homo sapiens, KARPAS-422, 144 h, read-out: Tumor Growth Inhibition in Karpas-422 (IC50, uM), Karpas422 cells, six days, ATPlite. In short, it runs like this: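 Karpas422 cells (2,000/well) in Alpha-MEM with 10% FBS dosed across 10 concentrations (top 5 uM) and grown six days at 37° C., 5% CO2. Viability read as ATPlite luminescence.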
On the technique in general: Cellular ATP, detected with luciferase, serves as a proxy for viable cell number.

In test [1] the test system is BCL6 reporter construct (3xBCL6-TK-Luc) in SuDHL4 cells. Description: Cell-based luciferase assay. The settings on record: Homo sapiens, SU-DHL-4, 48 h, read-out: Luciferase-Assay EC50, uM), SuDHL4-3xBCL6-TK-Luc cells, two days, high dose 10 uM. In short, it runs like this: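 SuDHL4 cells stably carrying a 3×BCL6-site TK-promoter firefly luciferase reporter, seeded at 15,000 cells/well, were dosed over a 10-point range (top 10 uM) and grown two days at 37 °C, 5% CO2. Luminescence then read after adding neolite reagent at room temperature.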

A further test concerns the target BCL6 BTB domain (Homo sapiens (Human), UniProt P41182). The test can be described thus: Surface plasmon resonance (SPR) assay. The settings on record: BCL6 BTB domain captured on SA chip, single cycle kinetics. The format is binding. (In general: Surface plasmon resonance follows binding to a sensor surface in real time, without labels.)

Where only a bound is given, the exact number is not on record here.

Our source for the IC50, EC50 and Kd values is patent US11518764B2, “Substituted heteroaryls as inhibitors of the BCL6 BTB domain protein-protein interaction” (Ontario Institute for Cancer Research (OICR), priority 2018, dated 2022).

With `CC(C1CC1)N1CCN(c2cc(NC(=O)Cn3cc(-c4cc(Cl)c(O)c(C(N)=O)c4)c4c(=O)n(C)cnc43)c(Cl)cn2)[C@@H](C)C1` (stereo partly drawn) [Compound I-392], the IC50 in the test with Karpas422 cells was 0.072 µM. For the same compound, in test [1], the EC50 stood at 0.178 µM. Also, the Kd on BCL6 BTB domain was determined as 15.5 nM.
In the same order, the values of `CN(C)c1cc(NC(=O)Cn2cc(-c3cc(Cl)c(O)c(C(N)=O)c3)c3c(=O)n(C)c(Cl)nc32)c(Cl)cn1` [Compound I-292] are 0.575 µM, 1.66 µM and 81.2 nM.
In the same order, the values of `CN(C)C1CN(c2cc(NC(=O)Cn3cc(-c4cc(Cl)c(O)c(C(N)=O)c4)c4c(=O)n(C)cnc43)c(Cl)cn2)C1` [Compound I-347] are 0.454 µM, 0.603 µM and 57.4 nM.
The matching figures for `Cn1cnc2c(c(-c3cc(C(N)=O)c(O)c(F)c3F)cn2CC(=O)Nc2cc(N3CCOCC3)c(F)cc2Cl)c1=O` [Compound I-227]: 2.16 µM, 2.5 µM and 420 nM.
Consider `CCN1CCN(c2cc(NC(=O)Cn3cc(-c4cc(Cl)c(O)c(C(N)=O)c4)c4c(=O)n(C)cnc43)c(Cl)c(F)n2)[C@@H](C)C1` [Compound I-427], for which, in the test with Karpas422 cells, the 50% inhibitory concentration (IC50) was 0.114 µM. Besides, in test [1], the EC50 is 0.156 µM. Also, the affinity at BCL6 BTB domain, expressed as Kd, was 13.8 nM.
`Cn1cnc2c(c(-c3cc(C(N)=O)c(O)cc3F)cn2CC(=O)Nc2cc(N3CCOCC3)ncc2F)c1=O` [Compound I-222]: in the test with Karpas422 cells, the IC50 amounted to 0.371 µM. Also, the concentration giving a half-maximal response (EC50) in test [1] stood at 1.33 µM. This compound also showed an equilibrium dissociation constant (Kd) at BCL6 BTB domain of 228 nM.
`Cc1nc2c(c(-c3cc(C(N)=O)c(O)c(F)c3F)cn2CC(=O)Nc2cc(N3CCOC[C@@H]3C)nc(F)c2Cl)c(=O)n1C` [Compound I-316]: the half-inhibitory concentration (IC50) in the test with Karpas422 cells came to 0.376 µM. Further, the concentration giving a half-maximal response (EC50) in test [1] amounted to 0.243 µM. This compound gave a Kd at BCL6 BTB domain of 24.1 nM.
Take `C[C@H]1CN(CCO)CCN1c1cc(NC(=O)Cn2cc(-c3cc(C(N)=O)c(O)c(F)c3F)c3c(=O)n(C)cnc32)c(Cl)cn1` [Compound I-452, (S)-5-(7-(2-((5-chloro-2-(4-(2-hydroxyethyl)-2-methylpiperazin-1-yl)pyridin-4-yl)amino)-2-oxoethyl)-3-methyl-4-oxo-4,7-dihydro-3H-pyrrolo[2,3-d]pyrimidin-5-yl)-3,4-difluoro-2-hydroxybenzamide]: in the test with Karpas422 cells, the IC50 stood at 1.52 µM. In addition, the concentration giving a half-maximal response (EC50) in test [1] was determined as 2.6 µM. Binding on BCL6 BTB domain was put at a Kd of 13.6 nM.
In the same order, the values of `C[C@H]1COCCN1c1cc(NC(=O)Cn2cc(-c3cc(C(N)=O)c(O)cc3F)c3c(=O)n(C)cnc32)c(Cl)cn1` [Compound I-161] are 1.29 µM, 0.971 µM and 115 nM.
In the case of `Cn1cnc2c(c(-c3cc(C(N)=O)c(O)c(F)c3F)cn2CC(=O)Nc2cc(N3CCOCC3)ncc2Cl)c1=O` [Compound I-178], the IC50 in the test on Karpas422 cells amounted to 0.877 µM. The EC50 in test [1] was 0.96 µM. Besides, the dissociation constant Kd on BCL6 BTB domain turned out to be 62.1 nM.
Consider `COCCN1CCN(c2cc(NC(=O)Cn3cc(-c4cc(C(N)=O)c(O)c5c4OCO5)c4c(=O)n(C)cnc43)c(Cl)c(F)n2)[C@@H](C)C1` [Compound I-375], for which the IC50 with Karpas422 cells is 0.0256 µM. For the same compound, the half-maximal effective concentration (EC50) in test [1] was determined as 0.0114 µM. The compound also yielded an equilibrium dissociation constant (Kd) on BCL6 BTB domain of 1.31 nM.
In the same order, the values of `Cc1c(O)c(C(N)=O)cc(-c2cn(CC(=O)Nc3cc(N4C[C@@H](C)O[C@@H](C)C4)ncc3Cl)c3ncn(C)c(=O)c23)c1F` [Compound I-119] are over 10 µM, over 10 µM and 4000 nM.
The matching figures for `CN1CC2CCC(C1)N2c1cc(NC(=O)Cn2cc(-c3cc(F)c(O)c(C(N)=O)c3)c3c(=O)n(C)cnc32)c(Cl)cn1` [Compound I-477]: 0.272 µM, 0.328 µM and 10.1 nM.
In the same order, the values of `C[C@@H]1COC[C@@H](C)N1c1cc(NC(=O)Cn2cc(-c3cc(Cl)c(O)c(C(N)=O)c3)c3c(=O)n(C)cnc32)c(Cl)cn1` [Compound I-259] are 0.652 µM, 0.214 µM and 38.5 nM.
For `Cn1cnc2c(c(-c3cc(F)c(O)c(C(N)=O)c3)cn2CC(=O)Nc2cc(N3C4CCC3CN(CC(F)(F)F)C4)ncc2Cl)c1=O` [Compound I-467], in the test with Karpas422 cells, the IC50 was determined as 0.496 µM. The EC50 in test [1] worked out at 1.23 µM. At BCL6 BTB domain, this compound came in with a Kd of 175 nM.
As for `C[C@H]1CN(C)CCN1c1cc(NC(=O)Cn2cc(-c3cc(F)c(O)c(C(N)=O)c3)c3c(=O)n(CCC(=O)c4cnn(C)c4)cnc32)c(Cl)c(F)n1` [Compound I-430, (S)-5-(7-(2-((3-chloro-6-(2,4-dimethylpiperazin-1-yl)-2-fluoropyridin-4-yl)amino)-2-oxoethyl)-3-(3-(1-methyl-1H-pyrazol-4-yl)-3-oxopropyl)-4-oxo-4,7-dihydro-3H-pyrrolo[2,3-d]pyrimidin-5-yl)-3-fluoro-2-hydroxybenzamide], in the test on Karpas422 cells, the IC50 is 0.38 µM. In addition, the concentration giving a half-maximal response (EC50) in test [1] was determined as 0.622 µM. Besides, the Kd at BCL6 BTB domain was 23.2 nM.
Turning to `C[C@H]1CN(CC2CC2)CCN1c1cc(NC(=O)Cn2cc(-c3cc(C(N)=O)c(O)c(F)c3F)c3c(=O)n(C)cnc32)c(Cl)c(F)n1` [Compound I-443], the half-inhibitory concentration (IC50) with Karpas422 cells was found to be 0.149 µM. Moreover, the 50% effective concentration (EC50) in test [1] came to 0.285 µM. The compound also showed a Kd on BCL6 BTB domain of 18.6 nM.
The matching figures for `CCN1CCN(c2cc(NC(=O)Cn3cc(-c4cc(C(N)=O)c(O)c5c4OCO5)c4c(=O)n(C)cnc43)c(Cl)c(F)n2)[C@@H](C)C1` [Compound I-357]: 0.0288 µM, 0.0322 µM and 1.86 nM.
Consider `CN(C)c1cc(NC(=O)Cn2cc(-c3cc(C(N)=O)c(O)c(F)c3F)c3c(=O)n(C)cnc32)c(Cl)c(F)n1` [Compound I-420], for which, in the test on Karpas422 cells, the half-inhibitory concentration (IC50) turned out to be 0.383 µM. The EC50 in test [1] was 0.429 µM. In addition, the Kd on BCL6 BTB domain was 16.3 nM.
The matching figures for `Cn1c(CCc2ccc(F)cc2)nc2c(c(-c3cc(Cl)c(O)c(C(N)=O)c3)cn2CC(=O)Nc2cc(N3CCOCC3)ncc2Cl)c1=O` [Compound I-127]: 0.276 µM, 0.756 µM and 201 nM.
In the case of `C[C@H]1COCCN1c1cc(NC(=O)Cn2cc(-c3cc(Cl)c(O)c(C(N)=O)c3)c3c(=O)n(C)cnc32)c(F)cn1` [Compound I-241], the IC50 in the test with Karpas422 cells was determined as 0.281 µM. Besides, in test [1], the EC50 worked out at 0.483 µM. Besides, the equilibrium dissociation constant (Kd) on BCL6 BTB domain came out at 19.5 nM.
As for `C[C@H]1COCCN1c1cc(NC(=O)Cn2cc(-c3cc(Cl)c(O)c(C(N)=O)c3)c3c(=O)[nH]cnc32)c(Cl)cn1` [Compound I-145], the IC50 in the test on Karpas422 cells is 0.551 µM. Moreover, in test [1], the EC50 stood at 0.303 µM. Further, on BCL6 BTB domain, the dissociation constant Kd was found to be 6.09 nM.
Consider `Cn1cnc2c(c(-c3cc(C(N)=O)c(O)c(F)c3F)cn2CC(=O)Nc2cc(N3CC4CCOC4C3)ncc2Cl)c1=O` (stereo not drawn) [Compound I-224], for which the IC50 with Karpas422 cells amounted to 0.651 µM. Besides, in test [1], the EC50 is 2.02 µM. At BCL6 BTB domain, the Kd was determined as 22.4 nM.
In the same order, the values of `CC(C1CC1)N1CCN(c2cc(NC(=O)Cn3cc(-c4cc(F)c(O)c(C(N)=O)c4)c4c(=O)n(C)cnc43)c(Cl)cn2)[C@@H](C)C1` (stereo partly drawn) [Compound I-391] are 0.0726 µM, 0.0672 µM and 7.26 nM.
Take `Cn1cnc2c(c(-c3cc(C(N)=O)c(O)c(F)c3F)cn2CC(=O)Nc2cc(N3CC4CC3CO4)ncc2Cl)c1=O` (stereo not drawn) [Compound I-286]: the 50% inhibitory concentration (IC50) in the test with Karpas422 cells was 1.54 µM. The half-maximal effective concentration (EC50) in test [1] is 1.96 µM. The same compound returned an equilibrium dissociation constant (Kd) at BCL6 BTB domain of 83.7 nM.
In the same order, the values of `CN1C(C)(C)CN(c2cc(NC(=O)Cn3cc(-c4cc(Cl)c(O)c(C(N)=O)c4)c4c(=O)n(C)cnc43)c(Cl)cn2)CC1(C)C` [Compound I-146] are 0.121 µM, 0.182 µM and 18.4 nM.
The matching figures for `C[C@H]1COCCN1c1cc(NC(=O)Cn2cc(-c3cc(C(N)=O)c(O)c(F)c3F)c3c(=O)n(C)cnc32)c(Cl)cn1` [Compound I-180]: 2.18 µM, 1.37 µM and 45.4 nM.
In the same order, the values of `C[C@H]1CNCCN1c1cc(NC(=O)Cn2cc(-c3cc(Cl)c(O)c(C(N)=O)c3)c3c(=O)n(C)cnc32)c(Cl)cn1` [Compound I-342] are 0.27 µM, 0.312 µM and 11.3 nM.
Regarding `Cc1nc2cc(Cl)c(NC(=O)Cn3cc(-c4cc(C(N)=O)c(O)c(F)c4F)c4c(=O)n(C)cnc43)cc2o1` [Compound I-226], the IC50 in the test with Karpas422 cells came out at 1.89 µM. In test [1], the concentration giving a half-maximal response (EC50) is 5.12 µM. This compound displayed a Kd on BCL6 BTB domain of 468 nM.
For the compound `Cn1cnc2c(c(-c3cc(C(N)=O)c(O)c(F)c3F)cn2CC(=O)Nc2cc(N3CCOCC3)nc(F)c2Cl)c1=O` [Compound I-318], the half-inhibitory concentration (IC50) in the test with Karpas422 cells was 0.319 µM. In test [1], the half-maximal effective concentration (EC50) was determined as 0.228 µM. The compound also gave a dissociation constant Kd at BCL6 BTB domain of 51.8 nM.
For `CN1CC2CC(C1)N2c1cc(NC(=O)Cn2cc(-c3cc(Cl)c(O)c(C(N)=O)c3)c3c(=O)n(C)cnc32)c(Cl)cn1` [Compound I-449], the IC50 in the test on Karpas422 cells is 1.97 µM. The EC50 in test [1] was 2.48 µM. At BCL6 BTB domain, the equilibrium dissociation constant (Kd) is 60.3 nM.
In the same order, the values of `C[C@H]1CN(CC2(C#N)CC2)CCN1c1cc(NC(=O)Cn2cc(-c3cc(C(N)=O)c(O)c(F)c3F)c3c(=O)n(C)cnc32)c(Cl)cn1` [Compound I-407] are 0.377 µM, 0.783 µM and 23.6 nM.
On to `CC(C)[C@H]1CN(C)CCN1c1cc(NC(=O)Cn2cc(-c3cc(Cl)c(O)c(C(N)=O)c3)c3c(=O)n(C)cnc32)c(Cl)cn1` [Compound I-360], for which the IC50 in the test on Karpas422 cells is 0.778 µM. In test [1], the EC50 stood at 0.659 µM. The dissociation constant Kd at BCL6 BTB domain came out at 30.9 nM.

As usually defined, the IC50 is the concentration at which inhibition is half-maximal. Usually EC50 stands for the concentration that produces a half-maximal response. By Kd is commonly meant the free concentration of one partner at which half of the binding sites on the other are occupied at equilibrium, for simple one-to-one binding. Lower therefore signals a tighter complex.
